Test results taken from US20110059475A1, “STABILISATION OF BLOOD CELL CONJUGATES” (THE UNIVERSITY OF NOTTINGHAM, priority 2008, published 2011).
“Also recorded” adds a separate entry of the source.

Key:
platelets [1] = experiment: Whole blood platelet aggregation: flow cytometric single platelet count in fixed and stabilised citrate-anticoagulated blood; assay type: cell-based
Text: Referring to FIG. 1, there are illustrated dot plots by which the number of single platelets may be quantified. Once the number of single platelets has been determined, it is then possible to calculate the percentage degree of platelet aggregation. Quantification of single platelets in whole blood by flow cytometry required 50,000 red cell events which were collected in region P1 on a forward scatter/side scatter plot, as shown in FIG. 1a. CD42a fluorescence was plotted against forward scatter, and region P2 was selected by drawing a curved line to include all platelet-related events and excluding erythrocyte/platelet co-incidences marked “e/p”, as shown in FIG. 1b. EDTA-anti-coagulated blood, or citrate anti-coagulated blood containing EDTA thus containing unstimulated platelets, was used to set three rectangular gates to quantitate microparticles (P3), single platelets (P4), and microaggregates (P5). These gates were then applied to the dot plots obtained for stimulated samples of blood, recording single platelets in P4. An example of results from an ADP-stimulated, fixed sample in which the single platelet events (P4) reduced from 1716 to 182 (indicating the formation of platelet aggregates) is shown in FIGS. 1d, 1e and 1f.
Fixed and stabilised blood samples were mixed gently by repeated inversion of the sample tubes. 100 μl of the fixed blood was placed in a flow cytometry tube and centrifuged at 380 g for 5 minutes after which 90 μl of the supernatant is removed. The remaining 10 μl of fixed blood was then incubated with 10 μl of a 1 in 10 dilution of CD42a-FITC-labelled antibody for 20 min at 4° C. in the FACS tubes. 1 ml of FACSflow (or any other flow cytometry diluent) was added to the tubes immediately prior to reading on any flow cytometer equipped with a laser operating at an excitation wavelength of 488 nm and with detectors for measurement at suitable wavelengths for the selected fluorochromes (ie FITC). Appropriate software was used to acquire and analyse data on dot plots of forward scatter versus side scatter and forward scatter versus FITC fluorescence acquired with logarithmic amplification. Acquisition was stopped after recording 50,000 erythrocyte events. A sample of fixed unstimulated EDTA-anti-coagulated blood was used to set the vertical lines of three square gates P3, P4 and P5 on a forward scatter versus FITC fluorescence plot. These gates were adjusted to record microparticles in P3, single platelets in P4 and any microaggregates in P5 (see Example 2). The test samples are then analysed using the same gates. Larger aggregates would not be detected by the flow cytometer since they would be too large and cannot pass through the sample tube of the machine.
The single platelet count described above is a record of the number of single platelets present in each blood sample (recorded as single platelet events, ie the number of single platelets passing the laser) in relation to 50,000 erythrocyte events recorded, ie erythrocytes passing the laser. It is possible to calculate a true platelet count by using standard flow cytometry counting beads, such as those sold under the trade name Trucount. Aggregation is usually determined as a percentage, and in whole blood this may be recorded as a percentage fall in single platelets. […] It is therefore possible to calculate percentage aggregation directly from the recordings of single platelet events using the following formula:—
Where “EDTA count” is the number of platelet events (ie single platelets passing the laser) for a sample containing EDTA which has been fixed in the same way as the test samples, and where “Sample count” is the number of platelet events for the fixed test sample. […]

[2] = system: platelet-monocyte conjugates; experiment: Platelet-monocyte conjugates by flow cytometry (CD14 with CD42a or CD62P) in fixed and stabilised blood; assay type: cell-based; settings: after incubation with collagen
Method: (§1) For example, fixed and stabilised samples are removed from the fridge and mixed well until the sedimented cells are fully re-suspended. 500 μl of each sample is then dispensed into appropriately labelled flow cytometry tubes and centrifuged for 10 min at 380 g. 450 μl of the supernatant is then removed, taking care not to disturb the red blood cell pellet. 10 μl of saturating concentrations of CD14-APCCy7 (used to distinguish monocytes and neutrophils) and CD42a-FITC or CD62P-PE (used to identify platelets bound to either monocytes or neutrophils) is then added to the tubes and incubated with the cells in the dark. After 25 minutes, 1 ml of Erythrolyse solution (AbD Serotec, Oxford, UK) is added to the cells and left to stand for 10 minutes to lyse any red blood cells. 1 ml of FACSflow is added and the cells centrifuged at 380 g. Supernatants are decanted and cells re-suspended in 2 ml of FACSflow to wash the cells. The cells are then centrifuged at 380 g again, the supernatant removed and the cells finally re-suspended in 300 μl of FACSflow to await reading on the flow cytometer.
(§2) Leukocytes are initially identified by logical gating from dot plots of forward scatter (cell size) and side scatter (cell granularity) profiles acquired with linear amplification. Fluorescence parameters are acquired with logarithmic amplification and 30,000 leukocyte events are collected for each blood sample. […] Lymphocytes may also be identified by CD14 negativity and a low forward scatter/side scatter profile, but platelet-lymphocyte conjugates are formed to a lesser extent and are not routinely quantitated. Platelet-monocyte and platelet-neutrophil conjugates are quantified as the percentage of monocytes or neutrophils expressing platelet CD42a or CD62P fluorescence in an interval gate which may be adjusted using an appropriate IgG control in each case. Median fluorescence values for CD42a or CD62P are also measured for each population of leukocytes tested. […]

[3] = system: platelet-neutrophil conjugates; experiment: Platelet-neutrophil conjugates by flow cytometry (CD14 with CD42a or CD62P) in fixed and stabilised blood; assay type: cell-based; settings: after incubation with collagen
Method: as §1, §2
Referring to FIG. 10, there are shown dot plots used for the identification of platelet-leukocyte conjugates in fixed and stabilised blood samples following incubation with (a) saline, or (b) collagen. […] Platelet-monocyte and platelet-neutrophil conjugate formation following stimulation with collagen is seen as a shift to the right in plot (iii) as the degree of platelet-specific CD42a fluorescence (ie marker expression) increases.
Referring to FIG. 12, there is shown the quantification of platelet-neutrophil conjugates (identified from gates P1 and P4 as shown in FIG. 10) which are detected with the platelet-specific markers CD42a or CD62P. […]

platelets [4] = experiment: ADP-induced platelet aggregation in blood of volunteers before and after treatment with clopidogrel or clopidogrel plus aspirin; settings: ADP 10 μM stimulant tube, citrate blood, percentage of EDTA sample

**Q.** For “Thrombin Receptor Activating Peptide [TRAP]”, which “degree of aggregation (percentage fall in single platelets)” value (platelets [1]; 10 μM TRAP, same donor, citrate-anticoagulated blood) is on record?
**A.** 89%

**Q.** `Nc1ncnc2c1ncn2[C@@H]1O[C@H](COP(=O)(O)OP(=O)(O)O)[C@@H](O)[C@H]1O` [ADP, adenosine diphosphate] was tested. Which “aggregation (percentage fall in single platelets)” value (platelets [1]; 1 μM ADP, stirred 4 minutes) did it give?
**A.** 27%

**Q.** What about the “aggregation (percentage fall in single platelets)” value (platelets [1]; 3 μM ADP, stirred 4 minutes) of the same compound?
**A.** 62%

**Q.** And the “aggregation (percentage fall in single platelets)” value (platelets [1]; 10 μM ADP, stirred 4 minutes)?
**A.** 89%

**Q.** And the “single platelet events (P4)” value (platelets [1]; ADP-stimulated fixed sample, per 50,000 red cell events, unstimulated 1716)?
**A.** 182

**Q.** How did the “platelet-monocyte conjugates, percentage of parent monocyte population (CD42a, % gated)” value ([2]; saline 8.2) turn out when collagen was run?
**A.** 64.1%

**Q.** What about the “platelet-monocyte conjugates, percentage of parent monocyte population (CD62P, % gated)” value ([2]; saline 9.3) of the same compound?
**A.** 98.7%

**Q.** What about the “CD42a median fluorescence of monocyte population” value ([2]; saline 259) of the same compound?
**A.** 832 arbitrary units

**Q.** What about the “single platelet events in P4 (sample count)” value (platelets [1]; collagen 1 μg/ml, 4 minutes, per 50,000 erythrocyte events, EDTA count 1118) of the same compound?
**A.** 693

**Q.** And the “degree of aggregation (percentage fall in single platelets compared with EDTA sample)” value (platelets [1]; collagen 1 μg/ml, stirred 4 minutes, citrate-anticoagulated blood)?
**A.** about 38%

**Q.** What about the “platelet-neutrophil conjugates, percentage of parent neutrophil population (CD62P, % gated)” value ([3]; saline 7.3) of the same compound?
**A.** 72.1%

**Q.** And the “platelet-neutrophil conjugates, percentage of parent neutrophil population (CD42a, % gated)” value ([3]; saline 7.9)?
**A.** 21.9%

**Q.** And the “CD62P median fluorescence of neutrophil population” value ([3]; saline 141)?
**A.** 688

**Q.** What about the “CD42a median fluorescence of neutrophil population” value ([3]; saline 142) of the same compound?
**A.** 201

**Q.** Which “degree of aggregation (percentage fall in single platelets)” value (platelets [1]; 1 μM U46619, same donor, citrate-anticoagulated blood) does the source give for `CCCCC[C@H](O)/C=C/[C@@H]1[C@@H](C/C=C\CCCC(=O)O)[C@H]2CO[C@@H]1C2` [U46619] here?
**A.** 96%

**Q.** Which “degree of aggregation (percentage fall in single platelets)” value (platelets [1]; 200 nM arachidonic acid, same donor, citrate-anticoagulated blood) does the source give for `CCCCC/C=C\C/C=C\C/C=C\C/C=C\CCCC(=O)O` [AA, arachidonic acid] here?
**A.** 54%

**Q.** With `CC(=O)Oc1ccccc1C(=O)O` [aspirin] as the compound, how does the “effect on collagen-induced platelet aggregation” value (platelets [1]; collagen 1, 2, 3, 4 μg/ml for 10 minutes, presence vs absence of aspirin, three donors) read?
**A.** significantly reducing the amount of aggregation

**Q.** Which “degree of aggregation (percentage fall in single platelets)” value (platelets [1]; 3 μM PAF, same donor, citrate-anticoagulated blood) does the source give for Platelet Activating Factor [PAF] here?
**A.** 70%

**Q.** How did the “platelet aggregation after treatment compared with before treatment” value (platelets [4]) turn out when `COC(=O)[C@H](c1ccccc1Cl)N1CCc2sccc2C1` [clopidogrel] was run?
**A.** less aggregation; also recorded: inhibited
